Patent publication US11045409B2, “Composition comprising a water-insoluble solid organic UV-screening agent and a compound capable of establishing hydrogen bonds” (L'OREAL, priority 2013, dated 2021)

Assay: Maximum solubility of UV-screening agents in compound (B)/isododecane mixtures
Format: physicochemical
Details: sonication 45° C. 30 minutes, stable two months at room temperature
Procedure: Solubility Test of the Screening Agents (A) in Mixtures of Compounds (B) and of Isododecane —
300 mg of water-insoluble solid UV-screening agent (A) or of UV-screening agent outside the invention were weighed out in a 10 ml flask, and compound (B) (as a mixture at 50% by weight in isododecane) was then added in increasing amounts until dissolution of the screening agent was complete. The dissolution was performed by sonication at 45° C. for 30 minutes, followed by cooling to room temperature. […] The maximum solubility was given in w/w %, which represents the mass percentage of UV-screening agent in the (B)/isododecane/UV-screening agent mixture. The maximum solubility of the solid screening agent (A) in a solution of isododecane alone (Bo) was also measured as reference.

[1] = in compound (B1) at 50% by weight in isododecane
[2] = in compound (B2) at 50% by weight in isododecane
[3] = in isododecane alone (B0), reference

| SMILES | Maximum solubility of the UV-screening agent [1] | Maximum solubility of the UV-screening agent [2] | Maximum solubility of the UV-screening agent [3] |
| --- | --- | --- | --- |
| CCCCCCCCOC(=O)/C(C#N)=C\C=C\N(CCO)CCO [UV-screening agent No. 3] | 5 w/w % | 2.5 w/w % | insoluble |
| Cc1cc(CC(C)C[Si](C)(O[Si](C)(C)C)O[Si](C)(C)C)c(O)c(-n2nc3ccccc3n2)c1 (stereo not drawn) [UV-screening agent No. 2, Drometrizole Trisiloxane] | 30 w/w % | 30 w/w % | 5 w/w % |
| CCCCCCCCOC(=O)/C(C#N)=C\C=C\N(CC)CC [UV-screening agent No. 4] | 2.5 w/w % | 5 w/w % | insoluble |

The next lines start with the values.

| Maximum solubility of the UV-screening agent [1] | Maximum solubility of the UV-screening agent [2] | Maximum solubility of the UV-screening agent [3] | SMILES |
| --- | --- | --- | --- |
| 5 w/w % | 5 w/w % | 1 w/w % | CCCCC(CC)COc1ccc(-c2nc(-c3ccc(OC)cc3)nc(-c3ccc(OCC(CC)CCCC)cc3O)n2)c(O)c1 (stereo not drawn) [UV-screening agent No. 8, 2,4-bis{[4-(2-ethylhexyloxy)-2-hydroxy]phenyl}-6-(4-methoxyphenyl)-1,3,5-triazine] |
| 15 w/w % | 15 w/w % | 1 w/w % | COc1ccc(C(=O)CC(=O)c2ccc(C(C)(C)C)cc2)cc1 [UV-screening agent No. 1, Butylmethoxydibenzoylmethane] |
